Results on twelve molecules are retold here after PubChem BioAssay (NCI).

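Five concentrations, 48 hours, 96-well plates. TGI: concentration producing complete growth inhibition.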

Assay in all cases: growth of human tumour cells (NCI), 48 h
Experiment [1] deals with A549 NSCLC.
The subject of experiment [2] is IGROV1 ovarian.
In experiment [3] the test system is K-562 leukemia.
For experiment [4], the system named is M14 melanoma.
For experiment [5], the system named is MDA-N.
In experiment [6] the test system is OVCAR-4 ovarian.
The subject of experiment [7] is OVCAR-8 ovarian.
The test system of experiment [8] is RPMI-8226 leukemia.
In experiment [9] the test system is RXF 393 renal.
Experiment [10] relates to SK-MEL-28 melanoma.
Experiment [11] concerns SN12C renal.

`C=CC(=C)CCC(Br)C(C)(C)Br` (stereo unspecified): the TGI in experiment [1], in [2], in experiment [3], in experiment [4], in [5] and in [6] was above 100 µM each time. The TGI in experiment [7], in experiment [8], in experiment [9], in experiment [10] and in [11] was above 100 µM each time.

Consider `Cc1nc(-c2cccnc2)sc1C(=O)CC(=O)C(=O)Nc1cccc(NC(=O)C(=O)CC(=O)c2sc(-c3cccnc3)nc2C)n1`, for which the TGI in experiment [1], in experiment [2], in experiment [3], in experiment [4], in experiment [5] and in experiment [6] was above 100 µM each time. In addition, the TGI in experiment [7], in experiment [8], in [9], in experiment [10] and in experiment [11] was above 100 µM throughout.

As to `CCOP(=O)(OCC)/C(=C\n1ccc(=O)[nH]c1=S)C(=O)OC`, the TGI in [1], in [2], in [3], in experiment [4], in experiment [5] and in experiment [6] was above 100 µM throughout. The TGI in experiment [7], in experiment [8], in experiment [9], in [10] and in experiment [11] was above 100 µM throughout.

Turning to `Nc1ccc2nc3n(c2c1)C(c1c(F)cccc1F)SC3` (stereo unspecified), the TGI in experiment [1], in experiment [2], in [3], in [4], in experiment [5] and in [6] was above 100 µM in each case. The TGI in [7], in [8], in experiment [9], in [10] and in experiment [11] was above 100 µM in each case.

As to `Cc1cc(C)n(CN(CCCCO)Cn2nc(C)cc2C)n1`, the TGI in experiment [1] is above 100 µM; in [2], 73.4 µM; in [3] it was 52.7 µM; in experiment [4], 33.9 µM; in [5], 35.1 µM; in experiment [6], 61.9 µM. The TGI in experiment [7] is 41.7 µM; in experiment [8], 20.3 µM; in experiment [9], 39 µM; in experiment [10], 39.3 µM; in experiment [11], 67 µM.

For the molecule `CCOc1cc2c(cc1O)C=C[C@@H]1[C@@H]2CC[C@]2(C)[C@@H](O)CC[C@@H]12`, the TGI is above 100 µM in experiment [1]; above 75.1 µM in [2]; above 100 µM in experiment [3]; 28 µM in [4]; above 100 µM in experiment [5]; above 100 µM in [6]. The TGI in experiment [7] is above 62.4 µM; in experiment [8], above 100 µM; in experiment [9], above 96.1 µM; in experiment [10], above 100 µM; in experiment [11] it was above 77.3 µM.

In the case of `Cc1cn(CCCCOC(=O)NC(CCCN=C(N)N)C(=O)O)c(=O)[nH]c1=O` (stereo unspecified), the TGI in [1], in [2], in experiment [3], in experiment [4], in [5] and in experiment [6] was above 100 µM each time. In addition, the TGI in experiment [7], in experiment [8], in [9], in experiment [10] and in [11] was above 100 µM in each case.

Consider `O=C1NCN(c2ccccc2)C12CCN(CCCN1CCN(CCOC(c3ccccc3)c3ccccc3)CC1)CC2`, for which the TGI was found to be 7.82 µM in experiment [1]; 7.4 µM in experiment [2]; 1.09 µM in experiment [3]; 3.86 µM in experiment [4]; 2.12 µM in experiment [5]; 7.47 µM in experiment [6]. In addition, the TGI in experiment [7] was found to be 6.51 µM; in [8] it was 5.23 µM; in [9], 4.68 µM; in experiment [10], 2.42 µM; in experiment [11] it was 7.14 µM.

As to `CC(=O)OCCCCn1nncc1Cn1ccc(=O)n(Cc2cnnn2CCCCOC(C)=O)c1=O`, the TGI in experiment [1], in [2], in [4], in experiment [5], in experiment [6] and in [7] was above 100 µM in each case. In addition, the TGI in experiment [8], in experiment [9], in [10] and in experiment [11] was above 100 µM each time.

Consider `NC1=Nc2ccccc2Sc2nccn21`, for which the TGI was above 100 µM in [1]; above 100 µM in experiment [2]; 50 µM in experiment [3]; 32.8 µM in experiment [4]; 59.7 µM in experiment [5]; above 100 µM in [6]. Besides, the TGI in [7] was above 100 µM; in [8], 44.5 µM; in [9], 56.5 µM; in experiment [10] it was above 100 µM; in experiment [11], above 100 µM.

Turning to `CC(C)(C)c1ccc(NS(=O)(=O)c2ccc(N)cc2)cc1`, the TGI in [1] is above 100 µM; in experiment [2], 45.2 µM; in experiment [3], 41.7 µM; in experiment [4] it was 44.2 µM; in experiment [5], 54.7 µM; in experiment [6], above 100 µM. Further, the TGI in experiment [7] amounted to 68.5 µM; in [8] it was 30.6 µM; in experiment [9], 94.1 µM; in experiment [10], 63.7 µM; in [11] it was 48.6 µM.

For the molecule `Cc1ccc2c(ccc3ncc(CNc4ccc(NS(C)(=O)=O)cc4)c32)[nH]1`, the TGI in [1] was 66 µM; in experiment [2], above 100 µM; in experiment [3], 46.3 µM; in experiment [4] it was 33.1 µM; in experiment [5], 32.1 µM; in experiment [6], 58.9 µM. Moreover, the TGI in [7] was determined as 81.1 µM; in [8], 41.3 µM; in experiment [9], 21.7 µM; in [10], 53.7 µM; in experiment [11], 92.5 µM.
